From patent US20230407304A1, “USE OF MICRORNA INHIBITION TO PREVENT AND TREAT OSTEOARTHRITIS AND OTHER INFLAMMATORY DISEASES” (VIRGINIA COMMONWEALTH UNIVERSITY, priority 2020, published 2023)
Several values for one entry are separate records, joined by “and”; a condition that tells them apart may be missing. Equal entries are not always repeated.

How the values were obtained:
[1] = tested on: unilateral ACLT model of OA in Sprague Dawley rats; experiment: Mild model of OA: unilateral ACLT, weekly intra-articular 24R,25 injections; type: in vivo, rat
Experimental: A total of 54 skeletally mature male Sprague-Dawley rats (Envigo, Indianapolis, IN), 9-10 weeks of age, weighing 250-300 g at the study onset, were used for these experiments. All animal procedures were performed according to the National Research Council's Guide for the Care and Use of Laboratory Animals guidelines and approved by Virginia Commonwealth University's Institutional Animal Care and Use Committee. All rats were given ad libitum access to standard pellet and water. Based on a previous study (Scott, supra) using a 30% effect size, 20% variance, and a power of 80%, a two-tail analysis indicated an n=8 per group was necessary to yield statistical significance.
The unilateral ACLT study initially included 45 rats. Each treatment group had n=8 plus 1 extra animal in case of morbidity or mortality. Three rats died resulting in a total of 42 rats in the study. Rats were sedated with 2-4% isoflurane anesthesia in 400 mL/min 02 to effect. Unilateral anterior cruciate ligament transections (ACLT, animals=45) were performed by medially translocating the patellar tendon in order to visualize and transect the ACL to create a […] model of OA. Left legs served at contralateral controls (c-control) while right legs received either […] of vehicle injections or 4×10^−7 M 24R,25(OH)2D3 (24R,2S) injections once a week. Eighteen rats were used to examine a 5-week prophylactic treatment duration while another eighteen rats were used to examine a 10-week prophylactic treatment duration. […] However, 3 animals died in this study resulting in an n=8 for the ACLT rats, for the 5-week vehicle (5W-Veh) treated rats, and the 10-week 24R,25 (10W-24R,25) treated rats. Animals were killed after 70 days. Hind-limbs were collected and micro-CT and histological analyses were performed. […]
The articular cartilage area, fibrotic area, and percent healthy subchondral bone were measured using Zen 2012 Blue Edition software. For the unilateral ACLT study: the articular cartilage area was measured on 2-3 slides per sample and the average area for each sample was reported for medial tibias. […]

[2] = tested on: unilateral ACLT model of OA; conditions: four weeks following ACLT surgery, previous work (Boyan et al.); cited from earlier work
[3] = tested on: IL-1β stimulated increases in MMP-13, PGE2, and NO; conditions: cited from earlier work
[4] = tested on: bilateral ACLT model of OA in Sprague Dawley rats; experiment: Severe model of OA: bilateral ACLT, weekly intra-articular 24R,25 injections; type: in vivo, rat; conditions: 10 weeks
Experimental: The second study created a more severe model of OA by performing bilateral ACLTs, using the experimental design shown in FIG. 2B. Treatment groups had n=8 plus 1 extra animal in case of morbidity or mortality. Nine animals were sedated using 2-4% isoflurane anesthesia in 400 mL/min O2 to effect. Bilateral anterior cruciate ligament transections were performed by medially translocating the patellar tendon in order to visualize and transect the ACL. Left legs received vehicle injections and right legs received 24R,25 injections once weekly using the same injection regimen outlined for the previous study. Animals were killed 70 days post-ACLT, and serum and hind-limbs were collected.
24R,25(OH)2D3 was obtained from Enzo Life Sciences (Plymouth Meeting, PA) and dissolved in ethanol at a stock concentration of 10^−4 M in accordance with a previously established protocol (see Boyan et al. PLoS One. 2016; 11(8):e0161782). 40 μL of stock 24R,25 was dissolved in 10 mL sterile 1×PBS to create a final treatment concentration of 4×10^−7 M 24R,25. All animals received injections of 25 μL of 4×10^−7 M 24R,25 in right legs or vehicle (40 μL ethanol dissolved in sterile 1×PBS to a final concentration of 0.4%) in left legs once a week for 70 days based on a previously established protocol (see Boyan et al., supra).
Samples were decalcified for 7 days using Decal™ (StatLab Medical Products, Mckinney, TX), rinsed in running DI water for 15 mins, dehydrated in a series of 70-100% ethanol and xylene washes, and embedded with Richard-Allan Scientific Histoplast Paraffin (VWR, Radnor, PA). 5 μm sections were cut every 100-200 μm throughout the joint using a manual microtome (Shandon Finesse 325, Thermo Scientific) and stained using hematoxylin and eosin (H&E), toluidine blue, or Masson's trichrome. Samples were imaged using Zen 2012 Blue Edition software with an AxioCam MRc5 camera and Axio Observer Z.1 microscope (Carl Zeiss Microscopy, Oberkochen, Germany).
The articular cartilage area, fibrotic area, and percent healthy subchondral bone were measured using Zen 2012 Blue Edition software. For the unilateral ACLT study: the articular cartilage area was measured on 2-3 slides per sample and the average area for each sample was reported for medial tibias. […] For the bilateral ACLT study, articular cartilage area, fibrotic area, and the percent healthy subchondral bone were measured on one slide per sample for medial femurs. The subchondral bone plate was measured and subdivided into healthy regions (normal cartilage above) and unhealthy regions (subchondral bone remodeling and osteophyte formation, cartilage erosion/delamination). The percent healthy subchondral bone was reported as healthy subchondral bone divided by total subchondral bone*100.
Two blinded reviewers scored histological samples and assigned a grade (0-6.5) to assess OA depth progression into the cartilage and a stage (0-4) to assess the horizontal extent of cartilage involvement along the articulating surface according to the OARSI scoring system guidelines (see Pritzker et al. Osteoarthritis Cartilage. 2006 January; 14(1):13-29). The grade and stage were multiplied together to obtain the OARSI score. The higher the score, the more severe OA present, with a max possible score of 26. […]
Data are represented as mean±standard error. […] Blood serum of day 0 vs day 70 was analyzed used a two-tailed paired t-test using an alpha=0.05. […]

[5] = tested on: rat articular chondrocytes (rArCs); experiment: WNT/β-catenin agonist or antagonist treatment of rArCs with or without IL-1β; type: cell-based; conditions: compound alone (LiCl 5 mM and 10 mM; XAV 0.5, 1 μM)
[6] = tested on: rat articular chondrocytes (rArCs); experiment: WNT/β-catenin agonist or antagonist treatment of rArCs with or without TNF-α; type: cell-based; conditions: compound plus 10 ng/mL TNF-α
[7] = tested on: destabilization of the medial meniscus model of OA; conditions: destabilization of the medial meniscus model of OA in mice; literature; cited from earlier work
[8] = 10W 24R,25 vs 10W-Veh vs ACLT alone
[9] = bilateral ACLT, 24R,25 vs vehicle limbs

| Compound | cartilage area by histomorphometric analysis, medial tibias [1, 8] | micro-CT cartilage volume, medial and lateral tibia [1, 8] | mean OARSI score, medial tibias ([1]; unilateral ACLT, 4×10^−7 M 24R,25 once a week for 10 weeks, day 70, max possible score 26) | OA progression [2] | IL-1β stimulated increases in MMP-13, PGE2, and NO [3] | OARSI score (average) ([4]; bilateral ACLT, 24R,25 once weekly, day 70) | articular cartilage area, medial femurs (histomorphometric analysis) ([4]; bilateral ACLT, 24R,25 right legs vs vehicle left legs, once weekly) | fibrotic area, medial femurs [4, 9] | percent healthy subchondral bone, medial femurs [4, 9] | mitigation of OA progression / OA severity ([4]; severe (bilateral ACLT) model) | total DNA [5] | total DNA [6] | cartilage degradation [7] |
| --- | --- | --- | --- | --- | --- | --- | --- | --- | --- | --- | --- | --- | --- |
| C=C1CC[C@H](O)C/C1=C/C=C1\CCC[C@]2(C)[C@@H]([C@H](C)CC[C@@H](O)C(C)(C)O)CC[C@@H]12 [24R,25, 24R,25-Dihydroxyvitamin D3] | no difference in cartilage area | no difference in cartilage volume between groups | 5.11 | mitigated OA progression | able to prevent | 16.61 and 15 | significantly less articular cartilage area compared to vehicle limbs | equivalent amount | equivalent amount | did not provide evidence of mitigation of OA progression |  |  |  |
| Oc1nc(-c2ccc(C(F)(F)F)cc2)nc2c1CSCC2 [XAV, XAV-939] |  |  |  |  |  |  |  |  |  |  | this was not seen | decrease in total DNA | reduced cartilage degradation |
